Source: PMC4319572 (Structure (London, England : 1993), 2015)

Key:
[1] = molecular target: T1, Rgd1p F-BAR domain (residues 1-324) (Saccharomyces cerevisiae, UniProt P38339); test: competition off PtdIns; assay type: binding; details: membranes with 10% (mole/mole) PtdIns(4,5)P2; competitive
T1 sequence (P38339 1-324): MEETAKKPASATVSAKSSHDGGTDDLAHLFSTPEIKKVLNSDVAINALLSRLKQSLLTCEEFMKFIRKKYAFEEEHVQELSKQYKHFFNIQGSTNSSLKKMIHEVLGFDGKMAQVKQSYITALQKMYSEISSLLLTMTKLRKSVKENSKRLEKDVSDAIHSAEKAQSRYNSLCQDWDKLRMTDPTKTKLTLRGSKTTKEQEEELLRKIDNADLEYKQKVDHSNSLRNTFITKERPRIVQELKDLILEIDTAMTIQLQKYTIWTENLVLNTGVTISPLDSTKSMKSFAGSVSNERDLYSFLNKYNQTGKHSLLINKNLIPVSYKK

[2] = molecular target: T2, Rgd1p F-BAR domain (residues 1-324) (Saccharomyces cerevisiae, UniProt P38339, R141D/K142E); test: surface plasmon resonance; assay type: binding; details: 30 μM protein over 10% (mole/mole) PtdIns(4,5)P2 in DOPC
T2 sequence (P38339 1-324 R141D/K142E): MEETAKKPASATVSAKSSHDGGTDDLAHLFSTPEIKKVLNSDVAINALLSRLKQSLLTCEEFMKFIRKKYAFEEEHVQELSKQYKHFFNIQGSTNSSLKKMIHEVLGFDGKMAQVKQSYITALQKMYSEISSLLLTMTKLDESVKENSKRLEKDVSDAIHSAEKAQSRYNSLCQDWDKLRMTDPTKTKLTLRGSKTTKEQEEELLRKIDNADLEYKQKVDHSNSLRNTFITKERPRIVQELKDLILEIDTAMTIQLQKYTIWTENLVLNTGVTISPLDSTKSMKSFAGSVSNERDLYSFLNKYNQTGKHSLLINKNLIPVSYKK

[3] = molecular target: T3, Rgd1p F-BAR domain (residues 1-324) (Saccharomyces cerevisiae, UniProt P38339, K149E/K153E); test: surface plasmon resonance; assay type: binding; details: 30 μM protein over 10% (mole/mole) PtdIns(4,5)P2 in DOPC
T3 sequence (P38339 1-324 K149E/K153E): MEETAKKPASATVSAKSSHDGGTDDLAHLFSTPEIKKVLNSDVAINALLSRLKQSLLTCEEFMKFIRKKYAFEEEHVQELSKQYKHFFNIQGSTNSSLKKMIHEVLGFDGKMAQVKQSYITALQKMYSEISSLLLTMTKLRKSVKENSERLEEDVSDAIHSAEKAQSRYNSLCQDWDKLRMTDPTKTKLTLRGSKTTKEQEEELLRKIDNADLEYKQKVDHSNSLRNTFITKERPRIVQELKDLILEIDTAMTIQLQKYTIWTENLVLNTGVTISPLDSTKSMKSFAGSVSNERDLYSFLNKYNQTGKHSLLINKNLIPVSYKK

[4] = molecular target: T4, Rgd1p F-BAR domain (residues 1-324) (Saccharomyces cerevisiae, UniProt P38339, R141D/K145E); test: surface plasmon resonance; assay type: binding; details: 30 μM protein over 10% (mole/mole) PtdIns(4,5)P2 in DOPC
T4 sequence (P38339 1-324 R141D/K145E): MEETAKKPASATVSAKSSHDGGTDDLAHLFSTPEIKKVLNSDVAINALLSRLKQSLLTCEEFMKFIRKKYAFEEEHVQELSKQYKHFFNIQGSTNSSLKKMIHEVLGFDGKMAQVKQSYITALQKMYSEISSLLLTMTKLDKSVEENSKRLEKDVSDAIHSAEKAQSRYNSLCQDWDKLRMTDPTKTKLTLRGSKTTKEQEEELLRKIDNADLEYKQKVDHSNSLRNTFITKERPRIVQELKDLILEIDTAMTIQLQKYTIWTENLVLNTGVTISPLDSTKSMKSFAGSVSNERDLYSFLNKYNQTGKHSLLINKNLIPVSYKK

[5] = molecular target: T5, Rgd1p F-BAR domain (residues 1-324) (Saccharomyces cerevisiae, UniProt P38339, R141D); test: surface plasmon resonance; assay type: binding; details: 30 μM protein over 10% (mole/mole) PtdIns(4,5)P2 in DOPC
T5 sequence (P38339 1-324 R141D): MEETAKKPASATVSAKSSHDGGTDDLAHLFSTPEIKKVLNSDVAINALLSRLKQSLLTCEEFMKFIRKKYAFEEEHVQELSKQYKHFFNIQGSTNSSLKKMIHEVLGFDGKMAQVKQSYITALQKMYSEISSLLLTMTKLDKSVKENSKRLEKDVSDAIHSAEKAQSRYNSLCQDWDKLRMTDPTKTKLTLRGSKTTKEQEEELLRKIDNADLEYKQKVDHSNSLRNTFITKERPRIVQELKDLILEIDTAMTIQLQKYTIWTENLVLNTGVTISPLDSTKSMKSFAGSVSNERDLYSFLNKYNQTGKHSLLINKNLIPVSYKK

AUC = molecular target: the molecule itself; test: AUC
crystal structure = molecular target: the molecule itself; test: crystal structure

Molecule | competition [1] | stoichiometry N (crystal structure) | further results
O=P(O)(O)O[C@H]1[C@H](O)[C@@H](OP(=O)(O)O)[C@H](O)[C@@H](OP(=O)(O)O)[C@H]1O [isolated headgroup of PtdIns(3,5)P2] | isolated headgroups of these three phosphoinositides were equally potent in their ability to compete | – | –
O=P(O)(O)O[C@@H]1[C@H](O)[C@H](O)[C@@H](OP(=O)(O)O)[C@H](OP(=O)(O)O)[C@H]1O [isolated headgroup of PtdIns(4,5)P2] | isolated headgroups of these three phosphoinositides were equally potent in their ability to compete | – | –
CCCCCCCC/C=C\CCCCCCCC(=O)OC[C@H](COP(=O)(O)O[C@@H]1[C@H](O)[C@H](O)[C@@H](OP(=O)(O)O)[C@H](OP(=O)(O)O)[C@H]1O)OC(=O)CCCCCCC/C=C\CCCCCCCC [dioleoyl-PtdIns(4,5)P2] | – | – | binding relative to wild type [2]: as seen for R141D/K142E and R141D/K145E doubly-mutated variants; binding relative to wild type [3]: Glutamate substitutions at K149 and K153; binding relative to wild type [4]: as seen for R141D/K142E and R141D/K145E doubly-mutated variants; % reduction of binding vs wild type at 30 μM protein [5]: > 75%
O=P(O)(O)O[C@H]1[C@H](O)[C@@H](O)[C@H](OP(=O)(O)O)[C@@H](OP(=O)(O)O)[C@H]1O [isolated headgroup of PtdIns(3,4)P2] | isolated headgroups of these three phosphoinositides were equally potent in their ability to compete | – | –
Hof1p F-BAR domain (residues 1-300) (domain or fragment, S. cerevisiae, UniProt Q05080 1-300, looked up, selenomethionine (SeMet) in the protein used for the crystals) MSYSYEACFWDPNDNGVNILLGHISQGIRSCDSMILFFKQRSELEKDYARRLGAITGKLDKDIGTNMDYGKLNETFNVVLSVEKARAQSHSKQSEILFRQIYTDTKAFAANLQARYTTLSGKIERLRMDKFNKKKGCEVLQKKLQDAQIRFRDLQLNENNMIGAKRVEHNKRELLKWESNSQEYKVQLDVLKQEYKASQKFWIHEWAQLSCELQEMENARISFLQSKLQQFATSSMETYILEQTKMDMLTNHLNSFTAADEISTFSKENGTGRLKHKTSKGDMNSSANWAQMSSISTTSK | – | 2 | Kd (AUC): ~3000 nM
Rgd1p F-BAR domain (residues 24-333) (domain or fragment, S. cerevisiae, UniProt P38339 24-333, looked up) DDLAHLFSTPEIKKVLNSDVAINALLSRLKQSLLTCEEFMKFIRKKYAFEEEHVQELSKQYKHFFNIQGSTNSSLKKMIHEVLGFDGKMAQVKQSYITALQKMYSEISSLLLTMTKLRKSVKENSKRLEKDVSDAIHSAEKAQSRYNSLCQDWDKLRMTDPTKTKLTLRGSKTTKEQEEELLRKIDNADLEYKQKVDHSNSLRNTFITKERPRIVQELKDLILEIDTAMTIQLQKYTIWTENLVLNTGVTISPLDSTKSMKSFAGSVSNERDLYSFLNKYNQTGKHSLLINKNLIPVSYKKHPSMNHGQK | – | 2 | –
